# In ChEMBL document CHEMBL4602638, “Propargylglycine-based antimicrobial compounds are targets of TolC-dependent efflux systems in Escherichia coli” (Bioorg Med Chem Lett, 2020):
# The source made the active and inactive calls. The rule behind the calls is not given here.
# Key:
# [1] = Lipophilicity, logP of compound; format: physicochemical; settings: octanol/water
# [2] = target: T1, UDP-3-O-acyl-N-acetylglucosamine deacetylase (Pseudomonas aeruginosa (strain ATCC 15692 / PAO1 / 1C / PRS 101 / LMG12228)) (UniProt P47205); assay: Inhibition of LpxC in Pseudomonas aeruginosa assessed as reduction in bacterial growth measured after 20 hrs by CLSI protocol based microbroth dilution method
# T1 sequence (whole entry): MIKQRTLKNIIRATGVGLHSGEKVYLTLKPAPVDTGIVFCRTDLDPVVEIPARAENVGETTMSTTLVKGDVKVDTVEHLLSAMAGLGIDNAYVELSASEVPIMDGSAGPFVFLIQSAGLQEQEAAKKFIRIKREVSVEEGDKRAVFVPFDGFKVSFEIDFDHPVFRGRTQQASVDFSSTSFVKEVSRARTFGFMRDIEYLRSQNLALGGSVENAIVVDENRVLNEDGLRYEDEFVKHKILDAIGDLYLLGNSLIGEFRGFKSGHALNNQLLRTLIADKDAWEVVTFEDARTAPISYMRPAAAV
# [3] = target: T2, UDP-3-O-acyl-N-acetylglucosamine deacetylase (Escherichia coli K-12) (UniProt P0A725); assay: Inhibition of LpxC in Escherichia coli assessed as reduction in bacterial growth at 160 ug/ml measured after 20 hrs by CLSI protocol based microbroth dilution method
# T2 sequence (whole entry): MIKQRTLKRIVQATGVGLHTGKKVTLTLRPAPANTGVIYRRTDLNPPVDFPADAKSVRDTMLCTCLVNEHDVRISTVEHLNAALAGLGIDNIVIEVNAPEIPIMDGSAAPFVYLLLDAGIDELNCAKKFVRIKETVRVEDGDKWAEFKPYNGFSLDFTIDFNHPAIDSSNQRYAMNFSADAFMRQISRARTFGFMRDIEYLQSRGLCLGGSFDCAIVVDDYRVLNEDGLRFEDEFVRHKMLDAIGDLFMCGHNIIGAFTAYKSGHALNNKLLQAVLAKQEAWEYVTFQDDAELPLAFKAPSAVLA
# [4] = target: T2, UDP-3-O-acyl-N-acetylglucosamine deacetylase (Escherichia coli K-12); assay: Inhibition of LpxC in Escherichia coli expressing deltaCdelta4LFhuA assessed as reduction in bacterial growth measured after 20 hrs by CLSI protocol based microbroth dilution method
# [5] = target: T2, UDP-3-O-acyl-N-acetylglucosamine deacetylase (Escherichia coli K-12); assay: Inhibition of LpxC in Escherichia coli assessed as reduction in bacterial growth measured after 20 hrs by CLSI protocol based microbroth dilution method
# [6] = target: T2, UDP-3-O-acyl-N-acetylglucosamine deacetylase (Escherichia coli K-12); assay: Inhibition of LpxC in Escherichia coli harboring deltaACRB mutant assessed as reduction in bacterial growth measured after 20 hrs by CLSI protocol based microbroth dilution method
# [7] = target: T2, UDP-3-O-acyl-N-acetylglucosamine deacetylase (Escherichia coli K-12); assay: Inhibition of LpxC in Escherichia coli harboring deltaTolC mutant assessed as reduction in bacterial growth measured after 20 hrs by CLSI protocol based microbroth dilution method
# [8] = target: T1, UDP-3-O-acyl-N-acetylglucosamine deacetylase (Pseudomonas aeruginosa (strain ATCC 15692 / PAO1 / 1C / PRS 101 / LMG12228)); assay: Inhibition of LpxC in Pseudomonas aeruginosa assessed as delay in bacterial growth at 25 to 50 ug/ml measured after 20 hrs by CLSI protocol based microbroth dilution method
# [9] = target: T2, UDP-3-O-acyl-N-acetylglucosamine deacetylase (Escherichia coli K-12); assay: Inhibition of LpxC in Escherichia coli expressing deltaCdelta4LFhuA assessed as reduction in bacterial growth at 80 ug/ml measured after 20 hrs by CLSI protocol based microbroth dilution method
# [10] = target: T2, UDP-3-O-acyl-N-acetylglucosamine deacetylase (Escherichia coli K-12); assay: Inhibition of LpxC in Escherichia coli expressing deltaCdelta4LFhuA and harboring deltaACRB mutant assessed as reduction in bacterial growth measured after 20 hrs by CLSI protocol based microbroth dilution method
# [11] = target: T2, UDP-3-O-acyl-N-acetylglucosamine deacetylase (Escherichia coli K-12); assay: Inhibition of LpxC in Escherichia coli assessed as reduction in bacterial growth at 80 ug/ml measured after 20 hrs by CLSI protocol based microbroth dilution method
# [12] = target: T2, UDP-3-O-acyl-N-acetylglucosamine deacetylase (Escherichia coli K-12); assay: Inhibition of LpxC in Escherichia coli expressing deltaCdelta4LFhuA and harboring deltaTolC mutant assessed as reduction in bacterial growth measured after 20 hrs by CLSI protocol based microbroth dilution method
smiles,measurement,setting,value
CC#CCOc1ccc(C(=O)N[C@H](C(=O)NO)C(C)(C)N)cc1,logP,[1],0.44
CC#CCOc1ccc(C(=O)N[C@@H](Cc2cn(C[C@H]3O[C@@H](n4ccc(=O)[nH]c4=O)[C@H](O)[C@@H]3O)nn2)C(=O)NO)cc1,logP,[1],-1.69
C#CC[C@H](NC(=O)c1ccccc1)C(=O)NO,logP,[1],0.61
C#CC[C@H](NC(=O)c1ccc(OCC#CC)cc1)C(=O)NO,MIC,[2],100 µg/mL
same,inhibition,[3],inactive
same,MIC,[4],100 µg/mL
same,logP,[1],1.29
same,MIC,[5],> 160 µg/mL
same,inhibition,[5],Dose-dependent effect
same,MIC,[6],80 µg/mL
same,MIC,[7],80 µg/mL
same,inhibition,[8],Active
N[C@@H](Cc1cn(C[C@H]2O[C@@H](n3ccc(=O)[nH]c3=O)[C@H](O)[C@@H]2O)nn1)C(=O)NO,logP,[1],-3.52
C#CC[C@H](NC(=O)c1ccc(-c2ccccc2)cc1)C(=O)NO,inhibition,[9],inactive
same,inhibition,[10],Active
same,inhibition,[11],inactive
same,logP,[1],2.28
same,inhibition,[12],Active
same,MIC,[6],32 µg/mL
same,inhibition,[6],Dose-dependent effect
same,MIC,[7],16 µg/mL
O=C(N[C@@H](Cc1cn(C[C@H]2O[C@@H](n3ccc(=O)[nH]c3=O)[C@H](O)[C@@H]2O)nn1)C(=O)NO)c1ccc(-c2ccccc2)cc1,logP,[1],-0.01
